Assay [1] addresses T1, Relaxin-3 receptor 2 (Homo sapiens, UniProt Q8TDU9). Description: Displacement of europium-labeled Eu(A)-mINSL5 from human RXFP4 expressed in CHO-K1 cells. The class given is cell-based.
In assay [2] the target is T1, Relaxin-3 receptor 2. Description: Agonist activity at human RXFP4 expressed in CHO-K1 cells assessed as reduction in forskolin-induced cAMP production by pCRE beta-galactosidase reporter assay. The class given is functional, cell-based.

Results on eight molecules are retold here after ChEMBL document CHEMBL4715703, “Engineering of a Novel Simplified Human Insulin-Like Peptide 5 Agonist” (J Med Chem, 2016).

In general, Ki refers to the equilibrium dissociation constant of an inhibitor or competing ligand from its target. The low end stands for a stronger hold on the target, the high end for a looser hold on the target. For orientation: EC50 means the concentration giving half of the maximal effect.

Where a SMILES comes first, the peptide text is derived from it. Bridges are numbered along the chain shown (N, C = ends). Roman numbers before positions name the chains, in order.

T1 sequence (Q8TDU9 whole entry): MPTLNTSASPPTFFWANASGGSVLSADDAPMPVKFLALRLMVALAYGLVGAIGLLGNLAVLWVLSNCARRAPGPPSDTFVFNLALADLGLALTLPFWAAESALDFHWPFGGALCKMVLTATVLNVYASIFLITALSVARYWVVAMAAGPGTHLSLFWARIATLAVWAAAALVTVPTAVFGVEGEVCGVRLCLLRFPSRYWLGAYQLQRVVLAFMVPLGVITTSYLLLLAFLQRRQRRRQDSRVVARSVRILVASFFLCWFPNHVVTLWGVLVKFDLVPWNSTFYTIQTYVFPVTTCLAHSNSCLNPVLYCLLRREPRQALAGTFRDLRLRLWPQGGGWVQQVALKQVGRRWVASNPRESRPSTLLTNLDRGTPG

The molecule `CC[C@H](C)[C@@H]1NC(=O)[C@H](Cc2ccc(O)cc2)NC(=O)[C@H]([C@@H](C)CC)NC(=O)[C@H](C(C)C)NC(=O)[C@H]([C@@H](C)O)NC(=O)[C@H](CCCNC(=N)N)NC(=O)[C@H]([C@@H](C)CC)NC(=O)[C@H](Cc2ccc(O)cc2)NC(=O)[C@H](CCC(=O)O)NC(=O)[C@H](CC(C)C)NC(=O)CNC(=O)[C@@H](NC(=O)[C@H](CC(C)C)NC(=O)[C@H](CCCNC(=N)N)NC(=O)[C@@H](NC(=O)[C@H](CO)NC(=O)[C@H](CCC(=O)O)NC(=O)[C@@H](N)CCCCN)C(C)C)CSSC[C@H](N)C(=O)N[C@@H](CCCNC(=N)N)C(=O)N[C@@H](CC(=O)O)C(=O)NCC(=O)N[C@@H](C)C(=O)N[C@@H](CO)C(=O)N[C@@H](CCSC)C(=O)N[C@@H]([C@@H](C)O)C(=O)N[C@@H](CC(=O)O)C(=O)N[C@@H](CC(C)C)C(=O)N[C@@H](CO)C(=O)N[C@@H](C)C(=O)N[C@@H](CC(C)C)C(=O)N[C@H](C(=O)O)CSSC[C@@H](C(=O)N[C@@H](C)C(=O)N[C@@H](CO)C(=O)N[C@@H](CO)C(=O)N[C@@H](CCCNC(=N)N)C(=O)N[C@@H](Cc2c[nH]c3ccccc23)C(=O)O)NC1=O` (I: H-KESVRLCGLEYIRTVIYICASSRW-OH / II: H-CRDGASMTDLSALC-OH; disulfide I:7-II:1, I:19-II:14) gave a Ki in assay [1] of 912 nM. In assay [2], the EC50 came out at 603 nM.

As for `CC[C@H](C)[C@@H]1NC(=O)[C@H](Cc2ccc(O)cc2)NC(=O)[C@H]([C@@H](C)CC)NC(=O)[C@H](C(C)C)NC(=O)[C@H]([C@@H](C)O)NC(=O)[C@H](CCCNC(=N)N)NC(=O)[C@H]([C@@H](C)CC)NC(=O)[C@H](Cc2ccc(O)cc2)NC(=O)[C@H](CCC(=O)O)NC(=O)[C@H](CC(C)C)NC(=O)CNC(=O)[C@@H](NC(=O)[C@H](CC(C)C)NC(=O)[C@H](CCCNC(=N)N)NC(=O)[C@@H](NC(=O)[C@H](CO)NC(=O)[C@H](CCC(=O)O)NC(=O)[C@@H](N)CCCCN)C(C)C)CSSC[C@H](N)C(=O)N[C@@H]([C@@H](C)O)C(=O)N[C@@H](CC(=O)O)C(=O)NCC(=O)N[C@@H](C)C(=O)N[C@@H](CO)C(=O)N[C@@H](CCSC)C(=O)N[C@@H]([C@@H](C)O)C(=O)N[C@@H](CC(=O)O)C(=O)N[C@@H](CC(C)C)C(=O)N[C@@H](CO)C(=O)N[C@@H](C)C(=O)N[C@@H](CC(C)C)C(=O)N[C@H](C(=O)O)CSSC[C@@H](C(=O)N[C@@H](C)C(=O)N[C@@H](CO)C(=O)N[C@@H](CO)C(=O)N[C@@H](CCCNC(=N)N)C(=O)N[C@@H](Cc2c[nH]c3ccccc23)C(=O)O)NC1=O` (I: H-KESVRLCGLEYIRTVIYICASSRW-OH / II: H-CTDGASMTDLSALC-OH; disulfide I:7-II:1, I:19-II:14), the affinity in assay [1] corresponds to a Ki of 145 nM. Moreover, the EC50 in assay [2] came out at 100 nM. On the same counts, the results for `CC[C@H](C)[C@@H]1NC(=O)[C@H](Cc2ccc(O)cc2)NC(=O)[C@H]([C@@H](C)CC)NC(=O)[C@H](C(C)C)NC(=O)[C@H]([C@@H](C)O)NC(=O)[C@H](CCCNC(=N)N)NC(=O)[C@H]([C@@H](C)CC)NC(=O)[C@H](Cc2ccc(O)cc2)NC(=O)[C@H](CCC(=O)O)NC(=O)[C@H](CC(C)C)NC(=O)CNC(=O)[C@@H](NC(=O)[C@H](CC(C)C)NC(=O)[C@H](CCCNC(=N)N)NC(=O)[C@@H](NC(=O)[C@H](CO)NC(=O)[C@H](CCC(=O)O)NC(=O)[C@@H](N)CCCCN)C(C)C)CSSC[C@H](N)C(=O)N[C@@H](CCCNC(=N)N)C(=O)N[C@@H](CCC(=O)O)C(=O)NCC(=O)N[C@@H](C)C(=O)N[C@@H](CO)C(=O)N[C@@H](CCSC)C(=O)N[C@@H](CCCCN)C(=O)N[C@@H](CCC(=O)O)C(=O)N[C@@H](CC(C)C)C(=O)N[C@@H](CO)C(=O)N[C@@H]([C@@H](C)O)C(=O)N[C@@H](CC(C)C)C(=O)N[C@H](C(=O)O)CSSC[C@@H](C(=O)N[C@@H](C)C(=O)N[C@@H](CO)C(=O)N[C@@H](CO)C(=O)N[C@@H](CCCNC(=N)N)C(=O)N[C@@H](Cc2c[nH]c3ccccc23)C(=O)O)NC1=O` (I: H-KESVRLCGLEYIRTVIYICASSRW-OH / II: H-CREGASMKELSTLC-OH; disulfide I:7-II:1, I:19-II:14) are 22.4 nM and 15.1 nM. In the same order, the values of `CC[C@H](C)[C@@H]1NC(=O)[C@H](C(C)C)NC(=O)[C@H]([C@@H](C)O)NC(=O)[C@H](CCCNC(=N)N)NC(=O)[C@H](C(C)C)NC(=O)[C@H](Cc2ccc(O)cc2)NC(=O)[C@H](CC(=O)O)NC(=O)[C@H](CC(C)C)NC(=O)CNC(=O)[C@@H](NC(=O)[C@H](CC(C)C)NC(=O)[C@H](CCCCN)NC(=O)[C@@H](NC(=O)[C@@H](NC(=O)[C@H](CCC(N)=O)NC(=O)[C@H](CCCNC(=N)N)NC(=O)[C@@H](N)CO)[C@@H](C)O)C(C)C)CSSC[C@@H]2NC(=O)[C@@H](NC(=O)[C@H](CC(C)C)NC(=O)[C@H](C)NC(=O)[C@H](CCC(N)=O)NC(=O)[C@H](CC(C)C)NC(=O)[C@H](CC(=O)O)NC(=O)[C@@H](N)CCCNC(=N)N)CSSC[C@H](NC(=O)CNC(=O)[C@H](CCC(=O)O)NC(=O)[C@H](CCCNC(=N)N)NC2=O)C(=O)N[C@@H](CO)C(=O)N[C@@H](CCSC)C(=O)N[C@@H](CCCCN)C(=O)N[C@@H](CCC(=O)O)C(=O)N[C@@H](CC(C)C)C(=O)N[C@@H](CO)C(=O)N[C@@H]([C@@H](C)O)C(=O)N[C@@H](CC(C)C)C(=O)N[C@H](C(=O)O)CSSC[C@@H](C(=O)N[C@@H](C)C(=O)N[C@@H](CO)C(=O)N[C@@H](CO)C(=O)N[C@@H](CCCNC(=N)N)C(=O)N[C@@H](Cc2c[nH]c3ccccc23)C(=O)O)NC(=O)[C@H]([C@@H](C)CC)NC(=O)[C@@H](Cc2ccc(O)cc2)NC1=O` are 1.58 nM and 0.51 nM. For “I: H-KESVRLCGLEYIRTVIYICASSRW-OH / II: H-RDLQALCCREGCSMKELSTLC-OH (disulfide I:7-II:8, I:19-II:21, II:7-II:12)”, the Ki in assay [1] turned out to be 5.5 nM. Further, the EC50 in assay [2] was determined as 0.35 nM. Molecule `CC[C@H](C)[C@@H]1NC(=O)[C@H](Cc2ccc(O)cc2)NC(=O)[C@H]([C@@H](C)CC)NC(=O)[C@H](C(C)C)NC(=O)[C@H]([C@@H](C)O)NC(=O)[C@H](CCCNC(=N)N)NC(=O)[C@H]([C@@H](C)CC)NC(=O)[C@H](Cc2ccc(O)cc2)NC(=O)[C@H](CCC(=O)O)NC(=O)[C@H](CC(C)C)NC(=O)CNC(=O)[C@@H](NC(=O)[C@H](CC(C)C)NC(=O)[C@H](CCCNC(=N)N)NC(=O)[C@@H](NC(=O)[C@H](CO)NC(=O)[C@H](CCC(=O)O)NC(=O)[C@@H](N)CCCCN)C(C)C)CSSC[C@H](N)C(=O)N[C@@H](CCCNC(=N)N)C(=O)N[C@@H](CC(=O)O)C(=O)NCC(=O)N[C@@H](C)C(=O)N[C@@H](CO)C(=O)N[C@@H](CCSC)C(=O)N[C@@H](CCCCN)C(=O)N[C@@H](CC(=O)O)C(=O)N[C@@H](CC(C)C)C(=O)N[C@@H](CO)C(=O)N[C@@H](C)C(=O)N[C@@H](CC(C)C)C(=O)N[C@H](C(=O)O)CSSC[C@@H](C(=O)N[C@@H](C)C(=O)N[C@@H](CO)C(=O)N[C@@H](CO)C(=O)N[C@@H](CCCNC(=N)N)C(=O)N[C@@H](Cc2c[nH]c3ccccc23)C(=O)O)NC1=O` (I: H-KESVRLCGLEYIRTVIYICASSRW-OH / II: H-CRDGASMKDLSALC-OH; disulfide I:7-II:1, I:19-II:14) had a Ki in assay [1] of 23.4 nM. Further, in assay [2], the EC50 is 39.8 nM. With `CC[C@H](C)[C@@H]1NC(=O)[C@H](Cc2ccc(O)cc2)NC(=O)[C@H]([C@@H](C)CC)NC(=O)[C@H](C(C)C)NC(=O)[C@H]([C@@H](C)O)NC(=O)[C@H](CCCNC(=N)N)NC(=O)[C@H](C(C)C)NC(=O)[C@H](Cc2ccc(O)cc2)NC(=O)[C@H](CC(=O)O)NC(=O)[C@H](CC(C)C)NC(=O)CNC(=O)[C@@H](NC(=O)[C@H](CC(C)C)NC(=O)[C@H](CCCCN)NC(=O)[C@@H](NC(=O)[C@@H](NC(=O)[C@H](CCC(N)=O)NC(=O)[C@H](CCCNC(=N)N)NC(=O)[C@@H](N)CO)[C@@H](C)O)C(C)C)CSSC[C@@H]2NC(=O)[C@@H](NC(=O)[C@H](CC(C)C)NC(=O)[C@@H](NC(=O)[C@H](CCC(N)=O)NC(=O)[C@H](CC(C)C)NC(=O)[C@H](CC(=O)O)NC(=O)C3CCC(=O)N3)[C@@H](C)O)CSSC[C@@H](NC(=O)CNC(=O)[C@H](CC(=O)O)NC(=O)[C@H]([C@@H](C)O)NC2=O)C(=O)N[C@H](CO)C(=O)N[C@H](CCSC)C(=O)N[C@H]([C@H](C)O)C(=O)N[C@H](CC(=O)O)C(=O)N[C@H](CC(C)C)C(=O)N[C@H](CO)C(=O)N[C@H](C)C(=O)N[C@H](CC(C)C)C(=O)N[C@@H](C(=O)O)CSSC[C@H](C(=O)N[C@@H](C)C(=O)N[C@@H](CO)C(=O)N[C@@H](CO)C(=O)N[C@@H](CCCNC(=N)N)C(=O)N[C@@H](Cc2c[nH]c3ccccc23)C(=O)O)NC1=O` (stereo not given in full), the EC50 in assay [2] came out at 2.75 nM. In assay [1], `CC[C@H](C)[C@@H]1NC(=O)[C@H](Cc2ccc(O)cc2)NC(=O)[C@H]([C@@H](C)CC)NC(=O)[C@H](C(C)C)NC(=O)[C@H]([C@@H](C)O)NC(=O)[C@H](CCCNC(=N)N)NC(=O)[C@H](C(C)C)NC(=O)[C@H](Cc2ccc(O)cc2)NC(=O)[C@H](CC(=O)O)NC(=O)[C@H](CC(C)C)NC(=O)CNC(=O)[C@@H](NC(=O)[C@H](CC(C)C)NC(=O)[C@H](CCCCN)NC(=O)[C@@H](NC(=O)[C@@H](NC(=O)[C@H](CCC(N)=O)NC(=O)[C@H](CCCNC(=N)N)NC(=O)[C@@H](N)CO)[C@@H](C)O)C(C)C)CSSC[C@H](N)C(=O)N[C@@H](CCCNC(=N)N)C(=O)N[C@@H](CCC(=O)O)C(=O)NCC(=O)N[C@@H](C)C(=O)N[C@@H](CO)C(=O)N[C@@H](CCSC)C(=O)N[C@@H](CCCCN)C(=O)N[C@@H](CCC(=O)O)C(=O)N[C@@H](CC(C)C)C(=O)N[C@@H](CO)C(=O)N[C@@H]([C@@H](C)O)C(=O)N[C@@H](CC(C)C)C(=O)N[C@H](C(=O)O)CSSC[C@@H](C(=O)N[C@@H](C)C(=O)N[C@@H](CO)C(=O)N[C@@H](CO)C(=O)N[C@@H](CCCNC(=N)N)C(=O)N[C@@H](Cc2c[nH]c3ccccc23)C(=O)O)NC1=O` (I: H-SRQTVKLCGLDYVRTVIYICASSRW-OH / II: H-CREGASMKELSTLC-OH; disulfide I:8-II:1, I:20-II:14) gave a Ki of 18.6 nM. Moreover, the EC50 in assay [2] was 33.9 nM.
